Test results reported in ChEMBL document CHEMBL5465560, “Selectivity Literature for EUbOPEN Chemogenomic Library” (2024).

Tests used:
[1] = target: Ephrin type-A receptor 7 (Homo sapiens) (UniProt Q15375); test: Selectivity interaction (KinomeScan (DiscoverX)) EUB0000229b EPHA7; conditions: at 10 µM
[2] = target: T1, Serine/threonine-protein kinase 17A (Homo sapiens) (UniProt Q9UEE5); test: Selectivity interaction (KinomeScan (DiscoverX)) EUB0000229b STK17A; conditions: at 10 µM
T1 sequence (whole entry): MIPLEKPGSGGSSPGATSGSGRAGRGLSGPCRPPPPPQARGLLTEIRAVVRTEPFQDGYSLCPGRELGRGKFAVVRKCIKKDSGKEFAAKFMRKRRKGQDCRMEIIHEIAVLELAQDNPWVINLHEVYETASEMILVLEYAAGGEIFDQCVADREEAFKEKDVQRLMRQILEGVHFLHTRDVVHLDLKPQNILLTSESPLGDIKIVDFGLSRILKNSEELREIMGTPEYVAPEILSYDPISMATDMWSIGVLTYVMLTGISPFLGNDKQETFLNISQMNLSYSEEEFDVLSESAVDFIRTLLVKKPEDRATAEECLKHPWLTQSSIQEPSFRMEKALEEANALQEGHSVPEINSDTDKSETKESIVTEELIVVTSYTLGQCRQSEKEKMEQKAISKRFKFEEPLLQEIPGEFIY

[3] = target: Tyrosine-protein kinase Fyn (Homo sapiens) (UniProt P06241); test: Selectivity interaction (Upstate Kinase Profiler service (Millipore)) EUB0000056c FYN; conditions: at 1 µM
[4] = target: T2, Dual specificity mitogen-activated protein kinase kinase 7 (Homo sapiens) (UniProt O14733); test: Selectivity interaction (KinomeScan (DiscoverX)) EUB0000655a MAP2K7; conditions: at 10 µM
T2 sequence (whole entry): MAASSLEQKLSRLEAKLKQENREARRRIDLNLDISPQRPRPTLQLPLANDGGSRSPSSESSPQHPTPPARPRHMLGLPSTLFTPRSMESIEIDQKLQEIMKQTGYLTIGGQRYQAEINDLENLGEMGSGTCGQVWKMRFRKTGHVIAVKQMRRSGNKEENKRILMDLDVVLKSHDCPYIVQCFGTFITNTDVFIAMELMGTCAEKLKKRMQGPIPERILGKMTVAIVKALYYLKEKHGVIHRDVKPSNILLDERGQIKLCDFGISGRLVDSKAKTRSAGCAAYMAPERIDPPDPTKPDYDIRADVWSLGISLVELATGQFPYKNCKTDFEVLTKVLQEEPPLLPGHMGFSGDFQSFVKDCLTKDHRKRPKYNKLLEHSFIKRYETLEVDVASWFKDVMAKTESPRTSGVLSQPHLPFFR

[5] = target: T3, Serine/threonine-protein kinase D2 (Homo sapiens) (UniProt Q9BZL6); test: Selectivity interaction (KinomeScan (DiscoverX)) EUB0000655a PRKD2; conditions: at 10 µM
T3 sequence (whole entry): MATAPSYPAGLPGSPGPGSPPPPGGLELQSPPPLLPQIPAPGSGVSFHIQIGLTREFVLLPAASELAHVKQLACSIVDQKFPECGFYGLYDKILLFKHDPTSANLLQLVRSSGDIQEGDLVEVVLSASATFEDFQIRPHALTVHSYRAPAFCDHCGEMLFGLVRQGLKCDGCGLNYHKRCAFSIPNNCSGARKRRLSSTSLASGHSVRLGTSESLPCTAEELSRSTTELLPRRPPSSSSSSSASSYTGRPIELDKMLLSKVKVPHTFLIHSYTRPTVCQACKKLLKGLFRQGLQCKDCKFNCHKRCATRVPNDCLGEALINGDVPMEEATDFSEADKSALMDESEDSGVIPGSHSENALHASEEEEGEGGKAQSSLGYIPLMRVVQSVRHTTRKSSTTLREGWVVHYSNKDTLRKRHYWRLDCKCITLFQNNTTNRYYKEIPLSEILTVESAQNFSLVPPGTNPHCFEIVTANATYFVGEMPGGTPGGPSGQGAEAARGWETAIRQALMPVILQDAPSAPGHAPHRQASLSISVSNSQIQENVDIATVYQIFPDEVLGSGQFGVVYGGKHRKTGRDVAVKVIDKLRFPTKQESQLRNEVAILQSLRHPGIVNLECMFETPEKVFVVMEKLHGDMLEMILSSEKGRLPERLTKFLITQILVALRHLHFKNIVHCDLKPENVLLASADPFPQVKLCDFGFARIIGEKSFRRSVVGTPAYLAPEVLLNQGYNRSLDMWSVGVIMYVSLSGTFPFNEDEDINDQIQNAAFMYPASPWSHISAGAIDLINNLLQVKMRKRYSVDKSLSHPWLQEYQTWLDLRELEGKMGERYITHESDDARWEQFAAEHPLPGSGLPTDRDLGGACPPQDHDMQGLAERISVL

[6] = target: Nucleosome-remodeling factor subunit BPTF (Homo sapiens, UniProt Q12830); test: Selectivity interaction (Human bromodomain panel (DSF assay)) EUB0000233b BPTF
[7] = target: Phosphatidylinositol 3-kinase catalytic subunit type 3 (Homo sapiens, UniProt Q8NEB9); test: Selectivity interaction (Kinase panel (KiNativ target engagement assay in Jurkat cells)) EUB0001635a PIK3C3; type: cell-based; conditions: Selectivity number of off-targets 0.0, Selectivity number of targets 233.0, Source Knowledge https://www.sciencedirect.com/science/article/pii/S2451945619300674?via%3Dihub, at 1 µM
[8] = target: eIF-2-alpha kinase GCN2 (Homo sapiens) (UniProt Q9P2K8); test: Selectivity interaction (ActivX KiNativ screen (kinase selectivity in THP-1 cell lysates)) EUB0000639a EIF2AK4; type: subcellular; conditions: lysate, at 0.2 µM
[9] = target: Serine/threonine-protein kinase MARK2 (Homo sapiens) (UniProt Q7KZI7); test: Selectivity interaction (ActivX KiNativ screen (kinase selectivity in THP-1 cell lysates)) EUB0000639a MARK2; type: subcellular; conditions: lysate, at 1 µM
[10] = target: Serine/threonine-protein kinase SIK2 (Homo sapiens) (UniProt Q9H0K1); test: Selectivity interaction (KinomeScan (DiscoverX)) EUB0000607a SIK2; conditions: at 10 µM
[11] = target: Mitogen-activated protein kinase kinase kinase kinase 4 (Homo sapiens, UniProt O95819); test: Selectivity interaction (Kinase panel (literature)) EUB0001199aCl MAP4K4; conditions: at 1 µM
[12] = target: Dual specificity mitogen-activated protein kinase kinase 1 (Homo sapiens, UniProt Q02750); test: Selectivity interaction (Kinase panel (literature)) EUB0001199aCl MAP2K1; conditions: at 1 µM
[13] = target: CDK4/Cyclin D3 (Homo sapiens) (UniProt P11802+P30281); test: (§1) Selectivity interaction (KinomeScan (DiscoverX)) EUB0001619a CDK4; type: protein-complex assay; conditions: at 1 µM
[14] = target: Cyclin-dependent kinase 4/cyclin D1 (Homo sapiens) (UniProt P11802+P24385); test: as §1; type: protein-complex assay; conditions: at 1 µM

Serine/threonine-protein kinase MARK2 (Homo sapiens), sequence (Q7KZI7 whole entry): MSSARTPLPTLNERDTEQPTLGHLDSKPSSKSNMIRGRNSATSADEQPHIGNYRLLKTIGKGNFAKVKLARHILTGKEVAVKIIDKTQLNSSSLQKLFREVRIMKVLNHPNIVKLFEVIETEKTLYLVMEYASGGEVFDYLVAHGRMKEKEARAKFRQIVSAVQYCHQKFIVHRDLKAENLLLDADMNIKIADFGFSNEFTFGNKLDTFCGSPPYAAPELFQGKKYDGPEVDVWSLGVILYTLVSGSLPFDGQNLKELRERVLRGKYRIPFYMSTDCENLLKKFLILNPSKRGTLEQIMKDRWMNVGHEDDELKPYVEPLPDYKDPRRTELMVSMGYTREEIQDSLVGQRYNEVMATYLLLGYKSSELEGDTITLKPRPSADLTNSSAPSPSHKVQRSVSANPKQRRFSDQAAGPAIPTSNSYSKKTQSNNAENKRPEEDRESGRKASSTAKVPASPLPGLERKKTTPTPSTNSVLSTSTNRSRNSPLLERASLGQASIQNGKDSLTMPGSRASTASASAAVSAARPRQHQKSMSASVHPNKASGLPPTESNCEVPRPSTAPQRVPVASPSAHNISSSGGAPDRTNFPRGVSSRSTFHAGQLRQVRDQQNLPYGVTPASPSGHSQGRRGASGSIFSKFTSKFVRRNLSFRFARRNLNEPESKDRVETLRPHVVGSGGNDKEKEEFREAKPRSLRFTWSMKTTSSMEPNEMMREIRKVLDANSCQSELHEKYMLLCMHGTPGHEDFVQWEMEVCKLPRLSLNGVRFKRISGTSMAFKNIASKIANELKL
eIF-2-alpha kinase GCN2 (Homo sapiens), sequence (Q9P2K8 whole entry): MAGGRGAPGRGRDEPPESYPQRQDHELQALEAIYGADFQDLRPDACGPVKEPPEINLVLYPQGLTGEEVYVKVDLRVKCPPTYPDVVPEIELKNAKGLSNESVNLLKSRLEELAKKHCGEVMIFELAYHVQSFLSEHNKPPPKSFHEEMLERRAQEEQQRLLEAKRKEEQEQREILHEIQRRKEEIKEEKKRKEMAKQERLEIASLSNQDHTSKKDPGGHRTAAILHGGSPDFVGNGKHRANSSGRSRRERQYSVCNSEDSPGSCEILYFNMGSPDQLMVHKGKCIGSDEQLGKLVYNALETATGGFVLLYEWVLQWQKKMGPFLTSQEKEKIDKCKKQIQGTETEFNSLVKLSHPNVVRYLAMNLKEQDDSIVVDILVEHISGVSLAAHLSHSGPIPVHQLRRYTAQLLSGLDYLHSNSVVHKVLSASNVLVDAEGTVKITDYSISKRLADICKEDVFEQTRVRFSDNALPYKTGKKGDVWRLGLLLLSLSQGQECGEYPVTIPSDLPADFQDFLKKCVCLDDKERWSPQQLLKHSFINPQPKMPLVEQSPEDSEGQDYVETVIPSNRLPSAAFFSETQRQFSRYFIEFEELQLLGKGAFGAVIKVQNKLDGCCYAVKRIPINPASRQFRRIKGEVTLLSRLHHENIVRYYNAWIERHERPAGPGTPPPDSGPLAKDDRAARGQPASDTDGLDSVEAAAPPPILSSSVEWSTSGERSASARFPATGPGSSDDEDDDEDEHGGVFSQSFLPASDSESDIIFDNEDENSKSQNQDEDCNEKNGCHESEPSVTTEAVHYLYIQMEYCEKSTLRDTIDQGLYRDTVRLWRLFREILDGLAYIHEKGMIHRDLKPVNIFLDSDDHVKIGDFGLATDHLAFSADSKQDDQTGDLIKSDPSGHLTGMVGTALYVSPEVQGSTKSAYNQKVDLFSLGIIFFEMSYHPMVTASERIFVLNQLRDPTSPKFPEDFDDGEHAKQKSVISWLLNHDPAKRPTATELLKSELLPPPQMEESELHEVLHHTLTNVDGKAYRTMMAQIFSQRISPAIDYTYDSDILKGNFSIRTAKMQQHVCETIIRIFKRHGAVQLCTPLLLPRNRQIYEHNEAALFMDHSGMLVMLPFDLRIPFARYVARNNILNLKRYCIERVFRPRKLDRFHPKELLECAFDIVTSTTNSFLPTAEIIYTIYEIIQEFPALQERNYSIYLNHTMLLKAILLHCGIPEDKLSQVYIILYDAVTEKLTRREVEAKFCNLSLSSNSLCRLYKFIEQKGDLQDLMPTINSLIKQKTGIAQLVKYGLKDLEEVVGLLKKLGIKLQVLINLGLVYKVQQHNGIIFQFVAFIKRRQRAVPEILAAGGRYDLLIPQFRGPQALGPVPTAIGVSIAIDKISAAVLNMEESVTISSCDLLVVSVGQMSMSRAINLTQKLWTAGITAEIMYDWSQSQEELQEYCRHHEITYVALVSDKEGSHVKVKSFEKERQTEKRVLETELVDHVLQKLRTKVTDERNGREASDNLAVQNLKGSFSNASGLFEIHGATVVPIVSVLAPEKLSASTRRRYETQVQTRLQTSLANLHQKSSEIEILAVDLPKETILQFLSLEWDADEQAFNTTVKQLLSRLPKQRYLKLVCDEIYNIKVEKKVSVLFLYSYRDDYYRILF
Mitogen-activated protein kinase kinase kinase kinase 4, sequence (O95819 2-1239 limits assumed): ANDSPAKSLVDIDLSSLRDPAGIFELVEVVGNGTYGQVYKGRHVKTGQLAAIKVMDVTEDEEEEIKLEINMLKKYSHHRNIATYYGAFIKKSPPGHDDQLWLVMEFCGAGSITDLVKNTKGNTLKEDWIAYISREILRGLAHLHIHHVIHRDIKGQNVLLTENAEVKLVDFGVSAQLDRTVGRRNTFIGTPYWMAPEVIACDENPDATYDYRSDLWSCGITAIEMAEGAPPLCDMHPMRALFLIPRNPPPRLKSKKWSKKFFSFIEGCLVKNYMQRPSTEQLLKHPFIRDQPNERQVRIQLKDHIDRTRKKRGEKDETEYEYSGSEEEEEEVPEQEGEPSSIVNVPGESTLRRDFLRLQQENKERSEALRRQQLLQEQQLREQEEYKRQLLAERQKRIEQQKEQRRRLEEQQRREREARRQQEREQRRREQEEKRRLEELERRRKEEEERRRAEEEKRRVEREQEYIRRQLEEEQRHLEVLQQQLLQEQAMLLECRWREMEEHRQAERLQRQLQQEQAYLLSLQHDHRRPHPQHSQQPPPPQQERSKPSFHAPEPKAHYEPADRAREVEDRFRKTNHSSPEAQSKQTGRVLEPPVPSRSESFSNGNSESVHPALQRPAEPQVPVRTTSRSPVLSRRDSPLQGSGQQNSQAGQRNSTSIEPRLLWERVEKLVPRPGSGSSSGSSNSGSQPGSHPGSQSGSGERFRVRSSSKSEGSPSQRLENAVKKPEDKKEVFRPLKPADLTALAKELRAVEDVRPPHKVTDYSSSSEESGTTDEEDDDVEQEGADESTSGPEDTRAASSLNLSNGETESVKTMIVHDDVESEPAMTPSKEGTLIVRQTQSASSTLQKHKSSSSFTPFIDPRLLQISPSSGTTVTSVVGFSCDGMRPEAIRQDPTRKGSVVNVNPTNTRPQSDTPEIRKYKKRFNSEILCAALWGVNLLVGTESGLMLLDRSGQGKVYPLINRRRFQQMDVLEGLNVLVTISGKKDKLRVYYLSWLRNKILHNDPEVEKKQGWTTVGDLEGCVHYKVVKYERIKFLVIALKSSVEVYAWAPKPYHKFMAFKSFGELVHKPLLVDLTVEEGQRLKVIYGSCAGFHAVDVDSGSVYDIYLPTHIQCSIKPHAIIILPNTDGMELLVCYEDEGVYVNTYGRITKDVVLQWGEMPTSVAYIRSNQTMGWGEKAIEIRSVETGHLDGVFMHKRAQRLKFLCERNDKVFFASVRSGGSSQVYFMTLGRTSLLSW
Ephrin type-A receptor 7 (Homo sapiens), sequence (Q15375 28-998 limits assumed): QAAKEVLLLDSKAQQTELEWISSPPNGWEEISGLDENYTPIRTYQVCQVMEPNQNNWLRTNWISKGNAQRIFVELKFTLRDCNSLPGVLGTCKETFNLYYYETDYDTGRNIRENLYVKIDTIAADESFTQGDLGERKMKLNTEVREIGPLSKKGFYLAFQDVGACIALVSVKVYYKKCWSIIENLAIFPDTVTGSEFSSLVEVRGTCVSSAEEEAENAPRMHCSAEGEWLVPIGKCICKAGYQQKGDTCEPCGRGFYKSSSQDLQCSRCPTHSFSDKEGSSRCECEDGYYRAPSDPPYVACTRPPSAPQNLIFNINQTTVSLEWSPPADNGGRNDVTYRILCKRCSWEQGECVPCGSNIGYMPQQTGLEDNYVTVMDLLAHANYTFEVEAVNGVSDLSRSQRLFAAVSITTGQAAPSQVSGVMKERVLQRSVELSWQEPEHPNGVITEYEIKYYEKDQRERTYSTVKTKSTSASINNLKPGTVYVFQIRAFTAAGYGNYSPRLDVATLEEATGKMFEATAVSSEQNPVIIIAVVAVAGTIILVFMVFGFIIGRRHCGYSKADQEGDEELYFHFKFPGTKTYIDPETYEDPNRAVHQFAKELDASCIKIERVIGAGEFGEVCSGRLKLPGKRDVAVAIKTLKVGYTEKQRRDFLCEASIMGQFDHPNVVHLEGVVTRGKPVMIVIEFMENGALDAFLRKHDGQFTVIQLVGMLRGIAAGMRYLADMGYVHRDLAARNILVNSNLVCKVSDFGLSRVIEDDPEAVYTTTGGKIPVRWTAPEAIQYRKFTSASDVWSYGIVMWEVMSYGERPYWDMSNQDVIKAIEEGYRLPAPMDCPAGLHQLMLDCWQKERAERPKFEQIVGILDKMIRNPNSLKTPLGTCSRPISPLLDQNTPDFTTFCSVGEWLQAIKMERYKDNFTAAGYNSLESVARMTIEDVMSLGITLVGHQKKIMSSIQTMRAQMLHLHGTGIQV
Dual specificity mitogen-activated protein kinase kinase 1, sequence (Q02750 whole entry): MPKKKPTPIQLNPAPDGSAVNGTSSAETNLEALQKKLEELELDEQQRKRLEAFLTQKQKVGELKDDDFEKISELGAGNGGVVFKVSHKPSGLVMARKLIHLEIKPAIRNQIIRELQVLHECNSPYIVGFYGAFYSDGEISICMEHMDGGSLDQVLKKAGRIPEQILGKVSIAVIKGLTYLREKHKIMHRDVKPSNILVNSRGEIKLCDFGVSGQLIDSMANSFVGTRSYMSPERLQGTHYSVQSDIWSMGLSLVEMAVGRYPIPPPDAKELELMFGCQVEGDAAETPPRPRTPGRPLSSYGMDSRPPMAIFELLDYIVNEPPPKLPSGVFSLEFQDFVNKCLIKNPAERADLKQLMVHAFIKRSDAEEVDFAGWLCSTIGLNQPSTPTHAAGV

## COc1cc(N(C)c2ccnc3ccc(C(F)(F)F)cc23)cc(OC)c1OC
[1]
  % binding: 99%
[2]
  % binding: 92%

## Cc1ccc(-c2ccc3c(ccc4sc5c(c43)NC[C@@H](C)NC5=O)n2)cn1
[3]
  % of inhibition: 24%

## CN(C)CCOc1ccc(-c2nc(-c3ccncc3)c(-c3ccc4c(c3)CC/C4=N\O)[nH]2)cc1
[4]
  % of control: 94%
[5]
  % of control: 80%

## CN(C)CCCOc1ccc(-c2cc(NCCCn3cccn3)nc(S(C)(=O)=O)n2)cc1
[6]
  dTM: 3.8 K

## C=CC(=O)Nc1ccc(C(=O)Nc2[nH]nc3c2CN(C(=O)N[C@H](CN(C)C)c2ccccc2)C3(C)C)cc1
[7]
  % of engagement: -19.8%

## CC[C@@H]1[C@H](F)C(=O)N[C@@H]1COc1nccc2cc(C(N)=O)c(OC)cc12 [ZIMLOVISERTIB]
[8]
  % of inhibition: 1.7%
[9]
  % of inhibition: 26.6%

## CNC(=O)Nc1ccc(-c2nc(N3CC4CCC(C3)O4)c3cnn(C4CCC5(CC4)OCCO5)c3n2)cc1
[10]
  % of control: 97%

## CN1Cc2nccc(-c3cn(C)nc3-c3ccc(F)cc3)c2C1=O
[11]
  % of inhibition: 65%
[12]
  % of inhibition: -4%

## N#Cc1cccc(-c2c[nH]c3ncnc(N4CCOCC4)c23)c1
[13]
  % of control: 100%
[14]
  % of control: 65%
